Results on three compounds are retold here after patent US11926616B2, “Aminopyrazine diol compounds as PI3K-γ inhibitors” (Incyte Corporation, priority 2018, dated 2024).

Read-outs that look alike come from different tables or passages of the source.

The target in test [1] is PI3Kγ (p110γ) Recombinant Human Protein (Homo sapiens (Human), UniProt P48736). Briefly: PI3K-γ Scintillation Proximity Assay. The conditions noted are these: 20 μM PIP2, 2 μM ATP, 13 nM PI3Kγ, 120 min, room temperature. The format is biochemical. The source says:
Example B. PI3K-γ Scintillation Proximity Assay Materials: [γ-^33P]ATP (10 mCi/mL) and Wheat Germ Agglutinin (WGA) YSi SPA Scintillation Beads was purchased from Perkin Elmer (Waltham, MA). Lipid kinase substrate, D-myo-Phosphatidylinositol 4,5-bisphosphate (PtdIns(4,5)P2)D (+)-sn-1,2-di-O-octanoylglyceryl, 3-O-phospho linked (PIP2), CAS 204858-53-7, was purchased from Echelon Biosciences (Salt Lake City, UT). PI3Kγ (p110γ) Recombinant Human Protein was purchased from Life technology (Grand Island, NY). ATP, MgCl2, DTT, EDTA, MOPS and CHAPS were purchased from Sigma Aldrich (St. Louis, MO). The kinase reaction was conducted in polystyrene 384-well Greiner Bio-one white plate from Thermo Fisher Scientific in a final volume of 25 μL. Inhibitors were first diluted serially in DMSO and added to the plate wells before the addition of other reaction components. The final concentration of DMSO in the assay was 2%. The PI3Kγ assay was carried out at room temperature in 20 mM MOPS, pH 6.7, 10 mM MgCl2, 5 mM DTT and CHAPS 0.03%. Reactions were initiated by the addition of ATP, the final reaction mixture consisted of 20 μM PIP2, 2 μM ATP, 0.5 μCi [γ-^33P] ATP, 13 nM PI3Kγ. Reactions were incubated for 120 min and terminated by the addition of 40 μL SPA beads suspended in quench buffer: 163 mM potassium phosphate pH 7.8, 20% glycerol, 25 mM EDTA. The final concentration of SPA beads is 1.0 mg/mL. After the plate sealing, plates were shaken overnight at room temperature and centrifuged at 1500 rpm for 10 min, the radioactivity of the product was determined by scintillation counting on Topcount (Perkin-Elmer). IC50 determination was performed by fitting the curve of percent of the solvent control activity versus the log of the inhibitor concentration using the GraphPad Prism 6.0 software.
(In general: In a scintillation proximity assay essentially only radioactivity close to the scintillant gives light.)

The target in test [2] is PI3Kδ (p110δ/p85α) Recombinant Human Protein (Homo sapiens (Human), UniProt O00329). The test is described as follows: PI3Kδ Scintillation Proximity Assay. The format is biochemical. Particulars: 20 μM PIP2, 2 μM ATP, 3.4 nM PI3Kδ, 120 min, room temperature. From the text:
Example C. PI3Kδ Scintillation Proximity Assay Materials: [γ-^33P]ATP (10 mCi/mL) and Wheat Germ Agglutinin (WGA) YSi SPA Scintillation Beads was purchased from Perkin Elmer (Waltham, MA). Lipid kinase substrate, D-myo-Phosphatidylinositol 4,5-bisphosphate (PtdIns(4,5)P2)D (+)-sn-1,2-di-O-octanoylglyceryl, 3-O-phospho linked (PIP2), CAS 204858-53-7, was purchased from Echelon Biosciences (Salt Lake City, UT). PI3Kδ (p110δ/p85α) Recombinant Human Protein was purchased from Eurofins (St Charles, MO). ATP, MgCl2, DTT, EDTA, MOPS and CHAPS were purchased from Sigma Aldrich (St. Louis, MO). The kinase reaction was conducted in polystyrene 384-well Greiner Bio-one white plate from Thermo Fisher Scientific in a final volume of 25 μL. Inhibitors were first diluted serially in DMSO and added to the plate wells before the addition of other reaction components. The final concentration of DMSO in the assay was 2%. The PI3Kδ assay was carried out at room temperature in 20 mM MOPS, pH 6.7, 10 mM MgCl2, 5 mM DTT and CHAPS 0.03%. Reactions were initiated by the addition of ATP, the final reaction mixture consisted of 20 μM PIP2, 2 μM ATP, […] [γ-^33P] ATP, 3.4 nM PI3Kδ. Reactions were incubated for 120 min and terminated by the addition of 40 μL SPA beads suspended in quench buffer: 163 mM potassium phosphate pH 7.8, 20% glycerol, 25 mM EDTA. The final concentration of SPA beads is 1.0 mg/mL. After the plate sealing, plates were shaken overnight at room temperature and centrifuged at 1500 rpm for 10 min, the radioactivity of the product was determined by scintillation counting on Topcount (PerkinElmer). IC50 determination was performed by fitting the curve of percent of the solvent control activity versus the log of the inhibitor concentration using the GraphPad Prism 6.0 software.

Test [3] relates to Phosphorylated Ribosomal Protein S6 (RPS6) in THP-1 cells. The test is described as follows: THP-1 RPS6 ELISA Assay. The format is cell-based, Human. Particulars: THP-1 cells, serum starved, 2 hours compound, 10 nM MCP-1 for 15 minutes, Phospho-RPS6 ELISA, read-out: PI3Kγ_THP1_RPS6_ELISA IC50. A general note: ELISA stands for enzyme-linked immunosorbent assay.

Chain of PI3Kγ (p110γ) Recombinant Human Protein (P48736 whole entry): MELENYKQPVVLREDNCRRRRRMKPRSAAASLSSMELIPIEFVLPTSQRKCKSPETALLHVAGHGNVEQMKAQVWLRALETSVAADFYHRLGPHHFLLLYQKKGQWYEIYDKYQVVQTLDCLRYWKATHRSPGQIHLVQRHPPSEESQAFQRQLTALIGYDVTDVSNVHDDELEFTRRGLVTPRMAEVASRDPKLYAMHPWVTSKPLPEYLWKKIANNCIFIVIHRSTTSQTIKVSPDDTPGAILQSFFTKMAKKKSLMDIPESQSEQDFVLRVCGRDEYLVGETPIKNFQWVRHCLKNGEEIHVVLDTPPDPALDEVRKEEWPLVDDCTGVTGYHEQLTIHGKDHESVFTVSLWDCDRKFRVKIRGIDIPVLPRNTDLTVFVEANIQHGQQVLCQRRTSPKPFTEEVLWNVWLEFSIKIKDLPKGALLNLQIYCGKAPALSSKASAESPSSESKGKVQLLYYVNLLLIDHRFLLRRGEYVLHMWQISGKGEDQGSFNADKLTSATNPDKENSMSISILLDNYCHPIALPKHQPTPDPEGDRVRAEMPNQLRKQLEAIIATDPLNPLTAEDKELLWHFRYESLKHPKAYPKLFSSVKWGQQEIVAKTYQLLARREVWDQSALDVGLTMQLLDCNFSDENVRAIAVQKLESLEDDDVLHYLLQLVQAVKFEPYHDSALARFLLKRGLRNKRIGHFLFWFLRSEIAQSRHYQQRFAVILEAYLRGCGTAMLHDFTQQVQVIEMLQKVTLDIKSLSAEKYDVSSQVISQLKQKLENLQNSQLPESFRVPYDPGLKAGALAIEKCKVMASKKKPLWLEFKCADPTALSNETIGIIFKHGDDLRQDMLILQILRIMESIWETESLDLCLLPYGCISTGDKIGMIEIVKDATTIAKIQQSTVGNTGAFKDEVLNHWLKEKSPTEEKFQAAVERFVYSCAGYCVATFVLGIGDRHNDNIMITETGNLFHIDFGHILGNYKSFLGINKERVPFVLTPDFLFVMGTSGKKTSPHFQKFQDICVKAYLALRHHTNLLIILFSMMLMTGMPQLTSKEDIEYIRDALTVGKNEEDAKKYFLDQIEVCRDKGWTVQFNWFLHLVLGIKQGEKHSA
Chain of PI3Kδ (p110δ/p85α) Recombinant Human Protein (O00329 whole entry): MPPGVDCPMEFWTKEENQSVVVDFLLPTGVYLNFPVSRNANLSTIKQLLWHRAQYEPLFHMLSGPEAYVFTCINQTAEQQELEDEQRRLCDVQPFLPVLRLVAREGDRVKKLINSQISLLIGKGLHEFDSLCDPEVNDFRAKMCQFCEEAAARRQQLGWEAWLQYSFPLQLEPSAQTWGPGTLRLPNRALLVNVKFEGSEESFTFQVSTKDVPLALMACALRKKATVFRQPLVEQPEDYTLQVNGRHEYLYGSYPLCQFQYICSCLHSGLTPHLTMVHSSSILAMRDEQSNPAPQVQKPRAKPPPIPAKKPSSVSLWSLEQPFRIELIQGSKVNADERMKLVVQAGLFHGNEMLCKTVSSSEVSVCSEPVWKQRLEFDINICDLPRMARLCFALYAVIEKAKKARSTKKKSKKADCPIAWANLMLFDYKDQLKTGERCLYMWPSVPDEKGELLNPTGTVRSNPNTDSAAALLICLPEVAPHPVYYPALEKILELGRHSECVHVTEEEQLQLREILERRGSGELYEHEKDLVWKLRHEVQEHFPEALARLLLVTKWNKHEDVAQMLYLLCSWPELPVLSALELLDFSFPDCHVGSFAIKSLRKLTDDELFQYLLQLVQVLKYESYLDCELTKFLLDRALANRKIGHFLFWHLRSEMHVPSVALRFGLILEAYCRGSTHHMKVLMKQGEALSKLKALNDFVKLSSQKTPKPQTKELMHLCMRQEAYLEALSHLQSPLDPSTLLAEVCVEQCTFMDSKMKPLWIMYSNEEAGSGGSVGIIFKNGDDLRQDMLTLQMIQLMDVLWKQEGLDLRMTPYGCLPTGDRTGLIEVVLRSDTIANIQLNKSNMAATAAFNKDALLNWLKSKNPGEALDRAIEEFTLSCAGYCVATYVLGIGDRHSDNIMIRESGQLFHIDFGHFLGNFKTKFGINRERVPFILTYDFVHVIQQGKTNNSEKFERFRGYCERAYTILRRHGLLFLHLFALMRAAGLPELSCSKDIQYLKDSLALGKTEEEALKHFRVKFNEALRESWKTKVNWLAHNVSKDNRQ
Chain of PI3Kδ (p110δ/p85α) Recombinant Human Protein (P27986 whole entry partner): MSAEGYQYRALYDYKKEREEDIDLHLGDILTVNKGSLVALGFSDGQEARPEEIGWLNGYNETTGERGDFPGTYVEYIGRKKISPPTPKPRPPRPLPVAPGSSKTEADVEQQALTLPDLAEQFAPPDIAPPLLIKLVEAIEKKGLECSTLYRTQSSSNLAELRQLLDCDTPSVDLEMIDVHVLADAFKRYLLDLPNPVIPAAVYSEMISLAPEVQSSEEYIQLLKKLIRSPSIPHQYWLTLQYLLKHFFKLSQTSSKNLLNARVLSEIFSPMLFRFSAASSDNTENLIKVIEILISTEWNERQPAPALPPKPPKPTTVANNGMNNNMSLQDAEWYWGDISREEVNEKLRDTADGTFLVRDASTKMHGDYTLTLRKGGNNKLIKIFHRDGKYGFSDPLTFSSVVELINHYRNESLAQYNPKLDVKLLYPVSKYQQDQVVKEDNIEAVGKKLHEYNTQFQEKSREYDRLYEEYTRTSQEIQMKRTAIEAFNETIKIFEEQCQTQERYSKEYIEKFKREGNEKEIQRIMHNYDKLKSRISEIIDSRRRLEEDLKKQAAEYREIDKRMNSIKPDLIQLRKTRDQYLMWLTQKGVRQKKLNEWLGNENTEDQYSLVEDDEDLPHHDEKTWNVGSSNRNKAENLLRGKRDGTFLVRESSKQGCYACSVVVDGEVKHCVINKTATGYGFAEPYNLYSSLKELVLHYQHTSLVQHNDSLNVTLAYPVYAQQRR

What is called IC50 is the concentration needed to halve the response being measured. For the compound `Cc1ccc(C(O)(CO)C(F)(F)F)cc1-c1cnc(N)c(C2CN(S(=O)(=O)c3ccn(C)n3)C2)n1` (stereo not drawn) [Example 23, 2-(3-(5-Amino-6-(1-((1-methyl-1H-pyrazol-3-yl)sulfonyl)azetidin-3-yl)pyrazin-2-yl)-4-methylphenyl)-3,3,3-trifluoropropane-1,2-diol], the IC50 was at most 100 nM in test [1], at most 500 nM in test [2] and under 500 nM in test [3] (Homo sapiens).

For `Cc1ccc([C@](O)(CO)C(F)F)cc1-c1cnc(N)c(C(=O)N2CCC[C@@H]2CO)n1` [Example 45, (3-Amino-6-(5-((S)-1,1-difluoro-2,3-dihydroxypropan-2-yl)-2-methylphenyl)pyrazin-2-yl)((R)-2-(hydroxymethyl)pyrrolidin-1-yl)methanone], the IC50 in test [1] is at most 100 nM; in test [2] it was under 2000 nM; in test [3], under 500 nM.

As for `Cc1ccc(C(O)(CO)C(F)F)cc1-c1cnc(N)c(C(=O)NC2(C)CCOC2)n1` [Example 47, 3-amino-6-(5-((S)-1,1-difluoro-2,3-dihydroxypropan-2-yl)-2-methylphenyl)-N-(3-methyltetrahydrofuran-3-yl)pyrazine-2-carboxamide], the IC50 in test [1] was at most 100 nM; in test [2], at most 100 nM; in test [3] (Homo sapiens) it was under 100 nM.
